# System: Aβ42 (human neuroglioma H4 cells expressing human wild type APP751)
# Assay: In vitro cell screening assay with sandwich ELISA quantification of Aβ42 peptide
# Format: cell-based
# Conditions: H4 cells stably expressing human wild type APP751; Pro293 chemically defined medium; compounds 0.003-10 μM; incubated overnight (16-18 h); supernatant Aβ42 by sandwich ELISA; normalized to DMSO and DAPT; read-out: Aβ42 H4 Prot Fre IC50
# Protocol: Human neuroglioma H4 cells were transfected with a pcDNA3.1 plasmid expressing human wild type APP751 cDNA and a stable cell line was generated using G418 selection. Cells are plated at 15,000 cells/well in Costar 96-well plates and placed at 37° C. and 5% CO2. Six hours after plating, cells are washed three times with Pro293™ chemically defined medium, followed by addition of compounds (0.003-10 μM, final DMSO concentration of 0.33%). Plates were incubated overnight (16-18 h) and supernatant was removed for quantification of AP peptides by sandwich ELISA. Cytotoxicity was evaluated using Cell-Titer 96W AQueous One Solution Cell Proliferation Assay according to the manufacturer's protocol.
# ELISA Measurements of Aβ Peptides
# Aβ peptide levels were quantified by sandwich ELISA. 96-well plates are coated with C-terminal specific Aβ antibodies recognizing either Aβ37, Aβ38, Aβ40, Aβ42, Aβ43 or a N-terminal specific Aβ antibody to detect Aβ 1-x. Plates are then blocked overnight at 4° C. with 1% bovine serum albumin (BSA) in PBS-T. Plates are washed and 100 μl of cultured cell supernatant or synthetic Aβ peptide standards and a detection antibody (4G8-HRP) are applied to the blocked plate and incubated overnight at 4° C. The next day, wells are washed before the addition […] of detection substrate (TMB peroxidase). Plates are then read for absorbance at 450 nm on a Molecular Devices SpectraMax M5e Microplate Reader.
# IC50 values were calculated from values reported as percent of DMSO controls using nonlinear regression, based on a sigmoidal dose-response (variable slope) model. GraphPAD software from Prism used for calculation.
row,Structure (SMILES),IC50 [µM]
1,"Cc1cn(-c2ccc(Nc3ncc4c(n3)N(C)C(c3cc(Cl)ccc3C(F)(F)F)CO4)cc2F)cn1 (single isomer, unassigned; (+)) [Example 100A]",0.101
2,"Cc1cn(-c2ccc(Nc3ncc4c(n3)N(C)C(c3ccc(F)cc3Cl)CO4)cc2F)cn1 (single isomer, unassigned; (+)) [Example 101A]",0.075
3,"Cc1cc(-c2ccc(Nc3ncc4c(n3)N(C)C(c3ccc(F)cc3Cl)CO4)cc2F)ccn1 (single isomer, unassigned; (+)) [Example 102A]",0.415
4,"COc1cc(Nc2ncc3c(n2)N(C)C(c2cc(F)c(F)cc2Cl)CO3)ccc1-n1cnc(C)c1 (single isomer, unassigned; (+)) [Example 103A]",0.019
5,"Cc1cn(-c2ccc(Nc3ncc4c(n3)N(C)C(c3cc(F)ccc3C(F)(F)F)CO4)cc2F)cn1 (single isomer, unassigned; (+)) [Example 104B]",0.077
6,"COc1cc(Nc2ncc3c(n2)N(C)C(c2cc(F)ccc2C(F)(F)F)CO3)ccc1-n1cnc(C)c1 (single isomer, unassigned; (+)) [Example 105B]",0.051
7,"Cc1cn(-c2ccc(Nc3ncc4c(n3)N(C)C(c3ccc(Cl)cc3C(F)(F)F)CO4)cc2F)cn1 (single isomer, unassigned; (+)) [Example 106A]",0.154
8,"COc1cc(Nc2ncc3c(n2)N(C)C(c2ccc(Cl)cc2C(F)(F)F)CO3)ccc1-c1ccnc(C)c1 (single isomer, unassigned; (+)) [Example 107B]",0.174
9,"Cc1cn(-c2ccc(Nc3ncc4c(n3)N(C)C(C)CO4)cc2F)cn1 (single isomer, unassigned; (+)) [Example 108B]",0.108
10,"Cc1cn(-c2ccc(Nc3ncc4c(n3)N(C)C(C3CCOCC3)CO4)cc2F)cn1 (single isomer, unassigned; (+)) [Example 109A]",0.212
11,"COc1cc(Nc2ncc3c(n2)N(C)C(C)CO3)ccc1-c1ccnc(C)c1 (single isomer, unassigned; (+)) [Example 110B]",0.091
12,"COc1cc(Nc2ncc3c(n2)N(C)C(c2ccc(Cl)cc2C(F)(F)F)CO3)ccc1-n1cnc(C)c1 (single isomer, unassigned; (+)) [Example 112B]",0.064
13,"COc1cc(Nc2ncc3c(n2)N(C)C(C2CCOCC2)CO3)ccc1-n1cnc(C)c1 (single isomer, unassigned; (+)) [Example 114B]",0.077
14,"Cc1cn(-c2ccc(Nc3ncc4c(n3)N(C)C(c3cc(F)c(F)c(F)c3)CO4)cc2)cn1 (single isomer, unassigned; (+)) [Example 115B]",0.022
15,"COc1cc(Nc2ncc3c(n2)N(C)C(C)CO3)ccc1-n1cnc(C)c1 (single isomer, unassigned; (+)) [Example 116B]",0.063
16,"COc1cc(Nc2ncc3c(n2)N(C)C(c2ccc(F)cc2C)CO3)ccc1-n1cnc(C)c1 (single isomer, unassigned; (+)) [Example 117B]",0.022
17,"Cc1cn(-c2ccc(Nc3ncc4c(n3)N(C)C(c3cc(F)c(F)c(F)c3)CO4)cc2F)cn1 (single isomer, unassigned; (+)) [Example 118A]",0.029
18,"COc1cc(Nc2ncc3c(n2)N(C)C(c2cc(Cl)ccc2C(F)(F)F)CO3)ccc1-n1cnc(C)c1 (single isomer, unassigned; (+)) [Example 165A]",0.089
19,"COc1ccc(Cl)c(C2COc3cnc(Nc4ccc(-n5cnc(C)c5)c(OC)c4)nc3N2C)c1 (single isomer, unassigned; (+)) [Example 167A]",0.022
20,"COc1cc(Nc2ncc3c(n2)N(C)C(c2ccc(C(F)(F)F)cc2C(F)(F)F)CO3)ccc1-n1cnc(C)c1 (single isomer, unassigned; (+)) [Example 168B]",0.076
21,"Cc1cn(-c2ccc(Nc3ncc4c(n3)N(C)C(c3cc(F)c(F)cc3Cl)CO4)cc2F)cn1 (single isomer, unassigned; (+)) [Example 169A]",0.045
22,"COc1cc(Nc2ncc3c(n2)N(C)C(c2ccccc2C)CO3)cnc1-n1cnc(C)c1 (single isomer, unassigned; (+)) [Example 171A]",0.011
23,"COc1cc(Nc2ncc3c(n2)N(C)C(CC(F)(F)F)CO3)ccc1-n1cnc(C)c1 (single isomer, unassigned; (+)) [Example 172B]",0.054

row,Structure (SMILES),IC50 [µM]
1,"Cc1cn(-c2ccc(Nc3ncc4c(n3)N(C)C(c3cc(C(F)(F)F)ccc3Cl)CO4)cc2F)cn1 (single isomer, unassigned; (+)) [Example 173A]",0.072
2,"COc1cc(Cl)c(C2COc3cnc(Nc4ccc(-n5cnc(C)c5)c(OC)c4)nc3N2C)cc1Cl (single isomer, unassigned; (+)) [Example 174B]",0.032
3,"COc1ccc(C)c(C2COc3cnc(Nc4ccc(-n5cnc(C)c5)c(OC)c4)nc3N2C)c1 (single isomer, unassigned; (+)) [Example 175A]",0.011
4,"COc1nc(Nc2ncc3c(n2)N(C)C(c2cc(F)cc(F)c2)CO3)ccc1-n1cnc(C)c1 (single isomer, unassigned; (+)) [Example 179B]",0.287
5,"COc1nc(Nc2ncc3c(n2)N(C)C(c2ccccc2C)CO3)ccc1-n1cnc(C)c1 (single isomer, unassigned; (+)) [Example 180B]",0.374
6,"COc1cc(Nc2ncc3c(n2)N(C)C(c2cc(F)c(F)cc2F)CO3)cnc1-n1cnc(C)c1 (single isomer, unassigned; (+)) [Example 181B]",0.392
7,"COc1cc(Nc2ncc3c(n2)N(C)C(c2cc(F)c(F)c(F)c2)CO3)cnc1-n1cnc(C)c1 (single isomer, unassigned; (+)) [Example 182A]",0.013
8,"COc1nc(Nc2ncc3c(n2)N(C)C(c2cc(F)cc(F)c2)CO3)ccc1-c1ccnc(C)n1 (single isomer, unassigned; (+)) [Example 183A]",> 3
9,"COc1nc(Nc2ncc3c(n2)N(C)C(c2cc(F)cc(F)c2)CO3)ccc1-c1cnn(C)c1 (single isomer, unassigned; (+)) [Example 184B]",> 3
10,"COc1cc(Nc2ncc3c(n2)N(C)C(C)CO3)cnc1-n1cnc(C)c1 (single isomer, unassigned; (+)) [Example 185A]",0.241
11,"COc1cc(Nc2ncc3c(n2)N(C)C(c2ccc(F)cc2F)CO3)cnc1-n1cnc(C)c1 (single isomer, unassigned; (+)) [Example 186A]",0.018
12,"COc1cc(Nc2ncc3c(n2)N(C)C(C(F)(F)F)CO3)ccc1-n1cnc(C)c1 (single isomer, unassigned; (+)) [Example 187A]",0.419
13,"COc1nc(Nc2ncc3c(n2)N(C)C(c2cc(F)c(F)c(F)c2)CO3)ccc1-n1cnc(C)c1 (single isomer, unassigned; (+)) [Example 188B]",0.275
14,"COc1cc(Nc2ncc3c(n2)N(C)C(c2cc(F)cc(F)c2)CO3)cnc1-n1cnc(C)c1 (single isomer, unassigned; (+)) [Example 189A]",0.013
15,"Cc1cn(-c2ccc(Nc3ncc4c(n3)N(C)C(c3cc(F)cc(F)c3)CO4)nc2C#N)cn1 (single isomer, unassigned; (+)) [Example 192B, (+)-6-((7-(3,5-difluorophenyl)-8-methyl-7,8-dihydro-6H-pyrimido [5,4-b] [1, 4]oxazin-2-yl)amino)-3-(4-methyl-1H-imidazol-1-yl) picolinonitrile]",0.576
16,"COc1cc(Nc2ncc3c(n2)N(C)C(C(F)(F)F)CO3)cnc1-n1cnc(C)c1 (single isomer, unassigned; (+)) [Example 193A]",0.908
17,"Cc1cn(-c2ccc(Nc3ncc4c(n3)N(C)C(C)CO4)cn2)cn1 (single isomer, unassigned; (+)) [Example 194A]",0.97
18,"COc1ccc(C2COc3cnc(Nc4ccc(-n5cnc(C)c5)c(OC)c4)nc3N2C)c(C)c1 (single isomer, unassigned; (+)) [Example 199A]",0.025
19,"COc1cc(Nc2ncc3c(n2)N(C)C(C)CO3)ccc1-n1cnc(Cl)c1 (single isomer, unassigned; (+)) [Example 202B]",0.063
20,"Cc1cn(-c2ccc(Nc3ncc4c(n3)N(C)C(c3cc(F)cc(F)c3)CO4)cc2C#N)cn1 (single isomer, unassigned; (+)) [Example 203A, (+)-5-((7-(3,5-difluorophenyl)-8-methyl-7,8-dihydro-6H-pyrimido [5,4-b] [1, 4]oxazin-2-yl)amino)-2-(4-methyl-1H-imidazol-1-yl) benzonitrile]",0.016
21,"COc1cc(Nc2ncc3c(n2)N(C)C(c2cc(F)cc(F)c2)CO3)ccc1-n1cnc(Cl)c1 (single isomer, unassigned; (+)) [Example 204B]",0.019
22,"Cc1cn(-c2ccc(Nc3ncc4c(n3)N(C)C(C)CO4)cc2C#N)cn1 (single isomer, unassigned; (+)) [Example 205A, (+)-5-((7,8-dimethyl-7,8-dihydro-6H-pyrimido [5,4-b] [1, 4]oxazin-2-yl)amino)-2-(4-methyl-1H-imidazol-1-yl) benzonitrile]",0.231
